# From US12576070B2, “Medicine for improving state of pregnancy, and use thereof” (priority 2014, dated 2026)
# How the values were obtained:
# [1] = test system: women with a history of or susceptible to pregnancy-induced hypertension syndrome; assay: Tacrolimus treatment of women at risk of pregnancy-induced hypertension syndrome (Example 3); format: in vivo, human
# Description: Once pregnancy-induced hypertension syndrome develops, the possibility of experiencing repeated onset in the subsequent gestations is very high. The patients were evaluated through a transvaginal ultrasound examination, a Fallopian tube patency test, and hysteroscopy before an index ART cycle. […] Any women who had experienced miscarriage in the previous IVF cycle, who had received an IVF cycle, or who had received vaccination, all within three months, were excluded from the subjects. Any women with acquired or congenital thrombophilia were excluded from the subjects. All the patients were subjected to treatment with tacrolimus in the same manner as in Example 2. The dose of tacrolimus was 1 mg to 3 mg per day. The duration of administration of tacrolimus was from the time point immediately after establishment of pregnancy was confirmed by a pregnancy test, until the day of delivery, in all cases. In Case 1 and Case 3 described below, 3 mg of tacrolimus per day was administered everyday from the time point immediately after establishment of pregnancy was confirmed and until the second trimester of pregnancy, and 2 mg of tacrolimus per day was administered everyday from the third trimester of pregnancy until the delivery. In Case 2 described below, 2 mg of tacrolimus per day was administered everyday from the time point immediately after establishment of pregnancy was confirmed and until the delivery. The treatment was carried out in the same manner as in Example 2. The effects of administering tacrolimus were evaluated on the basis of whether the patients satisfactorily maintained the state of pregnancy without developing pregnancy-induced hypertension syndrome at predetermined time points between the second trimester and the third trimester of pregnancy. Cases in which the evaluation has been roughly completed are as follows.
# [2] = test system: kidney transplant recipients with tacrolimus exposure during pregnancy; details: cited from earlier work
# [3] = test system: patient with a past history of both eclampsia and HELLP syndrome; assay: Tacrolimus monotherapy in a patient with past history of eclampsia and HELLP syndrome (Example 4); format: in vivo, human; details: for ALT (U/L) / AST (U/L) / Cr / Hb / LDH (U/L) / Plt (10^4/uL) / WBC: blood examination, with tacrolimus treatment
# Source text: The patient was a person (y.o.) […] with a past history of both eclampsia and HELLP syndrome. During the first pregnancy when the patient was […], they complained of physical deconditioning from early in their pregnancy. […] Sudden aggravation of the edema, proteinuria and hypertension appeared at 18 weeks gestation, at which time they were diagnosed with preeclampsia. HELLP syndrome and eclampsia occurred at 20 weeks gestation and a stillbirth required an emergency cesarean section. After delivery of the baby, they had severe complications such as pulmonary edema, disseminated intravascular coagulation, and intraperitoneal bleeding. They were medicated via an artificial respirator, and received albumin and a blood transfusion (Table 6). […] Laboratory findings related to infertility such as antiphospholipid syndrome (anti-CL IgG Ab, anti-CL IgM Ab, anti-β2GP-1 Ab, anti-PS/PT Ab, anti-PE IgG Ab, anti-PE IgM Ab), autoimmune disease (ANA and anti-DNA Ab), and disorders of blood coagulation (protein S activity, protein C activity, factor XII activity) were all negative. Although no obvious immunological abnormalities of the Th1(CD4^+IFN-γ+)/Th2 (CD4+IL-4^+) cell ratio (15.2/2.1) in CD4 positive cells (normal range, <10.3) were observed before pregnancy^46, it was assumed that maternal immunity would be activated by the embedding of a fertilized ovum (recognition of fetal antigens) and the abnormalities of maternal-fetal immunity may have inhibited placenta construction and caused fetal growth retardation and hypertension. The patient was treated with 1 mg/day of tacrolimus to control the maternal-fetal immunity. This patient received a monotherapy of tacrolimus without a concomitant treatment of a low dose of aspirin, which is often used as an anti-platelet agent for HDP^47. The course of the pregnancy was stable until the 3rd trimester, and no significant symptoms were observed during the 2nd trimester, at which point HELLP syndrome occurred in their previous pregnancy. Clinical signs of HELLP syndrome rapidly appeared, however, at 33 weeks gestation. A decrease in the Th1 and Th2 cell populations in CD4 positive cells and a reduction in the activity of NK cells over time post-partum were observed, which confirms that the tacrolimus regimen exerted sufficient suppressive effect on those cells, whereas the activity of NK cells was elevated at 32 weeks gestation. A possibility was speculated that NK cell activity was stimulated when a large number of fetal antigens were transferred to the maternal blood circulation after the suppression of the NK cells by the 1 mg/day dose of tacrolimus became insufficient in the 3rd trimester. […] Th1 and Th2 cell populations in CD4 positive cells and the NK cell activity were measured to evaluate the patient's pathological condition. One of the parameters, NK cell activity, indicated an appearance of abnormal maternal-fetal immunity. Other parameters that can be used to evaluate the failure of maternal tolerance for a fetus and activation of maternal immune rejection against a fetus with inflammation include Treg cells, Th17 cells, cytokines, and chemokines^37-44.
# [4] = 236 babies born from kidney transplant recipients with tacrolimus exposure during pregnancy
# [5] = kidney transplant recipients with tacrolimus exposure during pregnancy
# [6] = Current pregnancy with tacrolimus treatment 1 mg/day
# [7] = Current pregnancy with tacrolimus treatment 1 mg/day, after delivery
# [8] = Current pregnancy with tacrolimus treatment 1 mg/day, before delivery
compound,measurement,setting,value
"C=CCC1/C=C(\C)CC(C)CC(OC)C2OC(O)(C(=O)C(=O)N3CCCCC3C(=O)OC(/C(C)=C/C3CCC(O)C(OC)C3)C(C)C(O)CC1=O)C(C)CC2OC (stereo not drawn) [tacrolimus, 17-Allyl-1,14-dihydroxy-12-[2-(4-hydroxy-3-methoxycyclohexyl)-1-methylvinyl]-23,2 5-dimethoxy-13,19,21,27-tetramethyl-11,28-dioxa-4-azatricyclo[22.3.1.04,9]octacos-18-ene-2,3,10,16-tetraone]",increase in blood pressure,"[1]; Case 1 (intrauterine fetal death in week 38 in previous gestation), 3 mg per day until second trimester, 2 mg per day from third trimester until delivery",did not experience an increase in blood pressure
same,gave birth to a healthy baby in week,"[1]; Case 1, 3 mg per day until second trimester, 2 mg per day from third trimester until delivery",39 week
same,increase in blood pressure,"[1]; Case 2 (twin pregnancy with infertilitas and positive anti-phosphorus antibody), 2 mg per day until delivery",did not experience an increase in blood pressure
same,gave birth to a healthy baby in week,"[1]; Case 2, 2 mg per day until delivery, premature rupture of the membrane caused by cough, premature birth of twin",35 week
same,edema and tendency of blood pressure increase,"[1]; Case 3 (intrauterine fetal death in week 32 in previous gestation), 3 mg per day until second trimester, 2 mg per day from third trimester",without edema and without a tendency of blood pressure increase
same,currently passing week of pregnancy,"[1]; Case 3, 3 mg per day until second trimester, 2 mg per day from third trimester",34 week
same,neonatal death rate,[2]; [4],2%
same,still born rate,[2]; [4],2%
same,obstetrical complications: diabetes during pregnancy,[2]; [5],8%
same,obstetrical complications: hypertension,[2]; [5],56%
same,obstetrical complications: infection,[2]; [5],22%
same,obstetrical complications: preeclampsia,[2]; [5],32%
same,obstetrical complications: spontaneous abortion,[2]; [5],26%
same,Fetal information: fetal growth,[3]; [6],−1.9 SD
same,start of proteinuria (weeks gstation),[3]; [6],33 weeks gstation
same,Symptoms: edema,[3]; [7],slight
same,Symptoms: hypertension,[3]; [7],transient
same,complications after deliverly,[3]; [7],none
same,Symptoms: edema,[3]; [8],slight
same,Symptoms: hypertension,[3]; [8],not observed
same,ALT (U/L),[3]; after delivery,833 U/L
same,AST (U/L),[3]; after delivery,898 U/L
same,Cr,[3]; after delivery,0.59 mg/dL
same,Hb,[3]; after delivery,10.5 g/dL
same,LDH (U/L),[3]; after delivery,1995 U/L
same,Plt (10^4/uL),[3]; after delivery,2.2 10^4/uL
same,WBC,[3]; after delivery,8220 cells/µL
same,ALT (U/L),[3]; before delivery,71 U/L
same,AST (U/L),[3]; before delivery,65 U/L
same,Cr,[3]; before delivery,1 mg/dL
same,Hb,[3]; before delivery,11 g/dL
same,LDH (U/L),[3]; before delivery,316 U/L
same,Plt (10^4/uL),[3]; before delivery,10 10^4/uL
same,WBC,[3]; before delivery,8280 cells/µL
same,Th1 and Th2 cell populations in CD4 positive cells,"[3]; during pregnancy, with time, tacrolimus 1 mg/day (FIG. 1)",decrease
same,NK cell activity,"[3]; during pregnancy, normal range 18-40%, tacrolimus 1 mg/day (FIG. 1)",decreased in the 2nd trimester and then obviously increased at 32 weeks gestation
same,"course of the pregnancy stable with no emergence of proteinuria, edema or hypertension until",[3]; tacrolimus 1 mg/day monotherapy,32 weeks gestation
same,Clinical signs of HELLP syndrome appeared at,"[3]; tacrolimus 1 mg/day monotherapy, previous pregnancy: 20 weeks gestation",33 weeks gestation
same,prolonged the timing of onset of HELLP syndrome,[3]; tacrolimus 1 mg/day versus previous pregnancy without treatment,about 13 weeks gestation
